Assay results as given in patent US9481659B2, “Selective heterocyclic sphingosine 1 phosphate receptor modulators” (Celgene International II SÀRL, priority 2011, dated 2016).
Where a name gives a salt, the structure may show the parent alone.

biological target: S1P1/EDG1 (Homo sapiens, UniProt P21453); experiment: S1P1 CRE-bla CHOK1 reporter assay, inhibition of Forskolin induced cAMP; format: cell-based; details: agonist activity range; S1P1 CRE-bla CHOK1 cells, 2 μM Forskolin; read-out: S1P1 ACTIVITY
Sequence (P21453 whole entry): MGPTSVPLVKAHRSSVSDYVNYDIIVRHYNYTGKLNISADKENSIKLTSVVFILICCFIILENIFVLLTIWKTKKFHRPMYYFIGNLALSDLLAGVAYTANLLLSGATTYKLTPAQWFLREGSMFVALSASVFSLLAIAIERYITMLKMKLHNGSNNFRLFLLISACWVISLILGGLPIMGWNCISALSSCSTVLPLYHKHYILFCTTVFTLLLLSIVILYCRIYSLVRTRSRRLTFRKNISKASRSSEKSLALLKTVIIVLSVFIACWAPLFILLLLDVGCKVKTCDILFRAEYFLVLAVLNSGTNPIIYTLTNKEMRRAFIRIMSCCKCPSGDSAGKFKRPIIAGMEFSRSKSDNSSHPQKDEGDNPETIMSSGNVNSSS
Description: Generation of S1P1-Mediated Inhibition of cAMP Reporter Assay
A mammalian expression plasmid containing S1P1/EDG1 cloned into pcDNA3.1 was purchased from Missouri S&T cDNA Resource Centre. […] S1P1/pcDNA3.1 was transfected into the CRE-bla CHO K1 (Invitrogen) cell line, and stable single cell clones were selected using standard techniques.
S1P1 CRE-Bla CHOK1 Reporter Assay—Characterization of S1P1 Agonists
Cells were seeded into 384-well black wall/clear bottom plates at 10^4 cells/well/19.5 μl assay media (DMEM-phenol free, 0.5% charcoal/dextran stripped serum, 2 mM glutamine, 0.1 mM NEAA, 1 mM Na-Pyruvate, 25 mM Hepes) and incubated for 18 hrs at 37° C. in 5% CO2. Dose response curves (10-point) were generated in 10 mM Hepes, 0.1% Pluronic F127, in the presence of Forskolin. Cells were treated with 0.5 μl compound in the presence of 2 μM Forskolin for 4 hrs at 37° C. The FRET-based β-lactamase fluorescent substrate (LiveBLAzer™-FRET B/G Loading Kit CC4-AM; Invitrogen) was prepared according to manufacturer's directions, and incubated with cells for 2 hrs at room temperature.

| Compound | EC50 [nM] |
| --- | --- |
| CC(=O)N[C@H]1CCCc2c(-c3nnc(-c4ccc(OC(C)C)c(C#N)c4)s3)cccc21 [Compound 232, (S)—N-(5-(5-(3-cyano-4-isopropoxyphenyl)-1,3,4-thiadiazol-2-yl)-1,2,3,4-tetrahydronaphthalen-1-yl)acetamide] | 0.5 to 5 |
| CC(C)Oc1ccc(-c2nnc(-c3cccc4c3CCC[C@H]4NC(=O)CN)s2)cc1C#N [Compound 250] | 0.5 to 5 |
| CC(C)Oc1ccc(-c2nnc(-c3cccc4c3CCC[C@H]4NS(=O)(=O)CC(=O)N(C)C)s2)cc1C#N [Compound 292, (R)-2-(N-(5-(5-(3-cyano-4-isopropoxyphenyl)-1,3,4-thiadiazol-2-yl)-1,2,3,4-tetrahydronaphthalen-1-yl)sulfamoyl)-N,N-dimethylacetamide] | 0.05 to 0.5 |
| CC(C)Oc1ccc(-c2ncc(-c3cccc4c3CC[C@H]4NC(=O)N3CC[C@H](N(C)C)C3)s2)cc1C#N [Compound 182] | 0.5 to 5 |
| COCCS(=O)(=O)N[C@@H]1CCc2c(-c3cnc(-c4ccc(OC(C)C)c(C#N)c4)s3)cccc21 [Compound 116] | 0.5 to 5 |
| CC(C)Oc1ccc(-c2nnc(-c3cccc4c3CCC[C@@H]4NC(=O)CN(C)C)s2)cc1C#N [Compound 238] | 0.5 to 5 |
| CNC(=O)CS(=O)(=O)N[C@H]1CCCc2c(-c3nnc(-c4ccc(OC(C)C)c(C#N)c4)s3)cccc21 [Compound 295] | 0.05 to 0.5 |
| CC(C)Oc1ccc(-c2nnc(-c3cccc4c3CCC[C@H]4NC(=O)c3ccccn3)s2)cc1C#N [Compound 235] | 0.5 to 5 |
| CNC(=O)CN[C@@H]1CCCc2c(-c3nnc(-c4ccc(OC(C)C)c(C#N)c4)s3)cccc21 [Compound 305] | 0.05 to 0.5 |
| CC(C)Oc1ccc(-c2ncc(-c3cccc4c3CCC[C@H]4N)s2)cc1C#N [Compound 230, (R)-5-(5-(5-amino-5,6,7,8-tetrahydronaphthalen-1-yl)thiazol-2-yl)-2-isopropoxybenzonitrile hydrochloride] | 0.5 to 5 |
| CC(C)Oc1ccc(-c2ncc(-c3cccc4c3CC[C@H]4NC(=O)N3CCN(C)CC3)s2)cc1C#N [Compound 190] | 0.5 to 5 |
| CC(C)Oc1ccc(-c2nnc(-c3cccc4c3CCC[C@H]4NC(=O)CCN)s2)cc1C#N [Compound 249] | 0.5 to 5 |
| CC(C)Oc1ccc(-c2nc(-c3cccc4c3CC[C@@H]4NS(N)(=O)=O)ns2)cc1C#N [Compound 309, (S)—N-(4-(5-(3-cyano-4-isopropoxyphenyl)-1,2,4-thiadiazol-3-yl)-2,3-dihydro-1H-inden-1-yl) sulfamide] | 0.05 to 0.5 |
| COC(=O)CS(=O)(=O)N[C@@H]1CCc2c(-c3cnc(-c4ccc(OC(C)C)c(C#N)c4)s3)cccc21 [Compound 154, (R)-methyl 2-(N-(4-(2-(3-cyano-4-isopropoxyphenyl)thiazol-5-yl)-2,3-dihydro-1H-inden-1-yl)sulfamoyl)acetate] | 0.05 to 0.5 |
| CC(C)Oc1ccc(-c2nnc(-c3cccc4c3CC[C@H]4N)s2)cc1C#N [Compound 5, (R)-5-(5-(1-amino-2,3-dihydro-1H-inden-4-yl)-1,3,4-thiadiazol-2-yl)-2isopropoxybenzonitrile hydrochloride] | 0.5 to 5 |
| CC(C)Oc1ccc(-c2ncc(-c3cccc4c3CC[C@H]4NCC(=O)O)s2)cc1C#N [Compound 96, (R)-2-((4-(2-(3-cyano-4-isopropoxyphenyl)thiazol-5-yl)-2,3-dihydro-1H-inden-1-yl)amino)acetic acid] | 0.05 to 0.5 |
| CC(C)Oc1ccc(-c2nnc(-c3cccc4c3CCC[C@@H]4NC(=O)CCO)s2)cc1C#N [Compound 255] | 0.05 to 0.5 |

| Compound | EC50 [nM] |
| --- | --- |
| CC(C)Oc1ccc(-c2nnc(-c3cccc4c3CC[C@H]4NCc3ncc[nH]3)s2)cc1C#N [Compound 29, (R)-5-(5-(1-(((1H-imidazol-2-yl)methyl)amino)-2,3-dihydro-1H-inden-4-yl)-1,3,4-thiadiazol-2-yl)-2-isopropoxybenzonitrile] | 0.05 to 0.5 |
| CC(C)Oc1ccc(-c2nc(-c3cccc4c3CC[C@@H]4NCCO)ns2)cc1C#N [Compound 311, (S)-5-(3-(1-(2-hydroxyethyl)amino)-2,3-dihydro-1H-inden-4-yl)-1,2,4-thiadiazol-5-yl)-2-isopropoxybenzonitrile hydrochloride] | 0.5 to 5 |
| CC(C)Oc1ccc(-c2nnc(-c3cccc4c3CCC[C@H]4NC(=O)CCO)s2)cc1C#N [Compound 259] | 0.05 to 0.5 |
| CC(C)Oc1ccc(-c2nnc(-c3cccc4c3CCC[C@@H]4NCc3ccncc3)s2)cc1C#N [Compound 270] | 0.5 to 5 |
| CC(C)Oc1ccc(-c2ncc(-c3cccc4c3CC[C@H]4NS(=O)(=O)CCC(=O)O)s2)cc1C#N [Compound 160] | < 0.05 |
| CC(C)Oc1ccc(-c2nnc(-c3cccc4c3CCC[C@@H]4NS(C)(=O)=O)s2)cc1C#N [Compound 279, (S)—N-(5-(5-(3 cyano-4-isopropoxyphenyl)-1,3,4-thiadiazol-2-yl)-1,2,3,4-tetrahydronaphthalen-1-yl)methanesulfonamide] | 0.05 to 0.5 |
| CC(C)Oc1ccc(-c2nnc(-c3cccc4c3CCC[C@@H]4NS(=O)(=O)CC(=O)N(C)C)s2)cc1C#N [Compound 293, (S)-2-(N-(5-(5-(3-cyano-4-isopropoxyphenyl)-1,3,4-thiadiazol-2-yl)-1,2,3,4-tetrahydronaphthalen-1-yl)sulfamoyl)-N,N-dimethylacetamide] | 0.05 to 0.5 |
| CC(C)Oc1ccc(-c2nnc(-c3cccc4c3CCC[C@H]4NS(N)(=O)=O)s2)cc1C#N [Compound 275, (R)—N-(5-(5-(3-cyano-4-isopropoxyphenyl)-1,3,4-thiadiazol-2-yl)-1,2,3,4-tetrahydronaphthalen-1-yl) sulfamide] | 0.05 to 0.5 |
| CC(C)Oc1ccc(-c2nnc(-c3cccc4c3CC[C@H]4NC(=O)N3CC(O)C3)s2)cc1C#N [Compound 65] | 0.05 to 0.5 |
| CC(C)Oc1ccc(-c2ncc(-c3cccc4c3CC[C@H]4NC(=O)N3CCC(CO)CC3)s2)cc1C#N [Compound 195] | 0.5 to 5 |
| CC(C)Oc1ccc(-c2nnc(-c3cccc4c3CCC[C@@H]4NCc3ccccn3)s2)cc1C#N [Compound 272] | 0.5 to 5 |
| CC(C)Oc1ccc(-c2nnc(-c3cccc4c3CCC[C@H]4NC(=O)CCNS(C)(=O)=O)s2)cc1C#N [Compound 258] | 0.5 to 5 |
| CC(C)Oc1ccc(-c2nnc(-c3cccc4c3CCC[C@@H]4N)s2)cc1C#N [Compound 229, (S)-5-(5-(5-amino-5,6,7,8-tetrahydronaphthalen-1-yl)-1,3,4-thiadiazol-2-yl)-2-isopropoxybenzonitrile hydrochloride] | 0.5 to 5 |
| CC(C)Oc1ccc(-c2nnc(-c3cccc4c3CCC[C@H]4NCCN(C)C)s2)cc1C#N [Compound 274, (R)-5-(5-(5-((2-(dimethylamino)ethyl)amino)-5,6,7,8-tetrahydronaphthalen-1-yl)-1,3,4-thiadiazol-2-yl)-2-isopropoxybenzonitrile] | 0.5 to 5 |
| CC(C)Oc1ccc(-c2ncc(-c3cccc4c3CC[C@H]4NS(=O)(=O)CCO)s2)cc1C#N [Compound 164, (R)—N-(4-(2-(3-cyano-4-isopropoxyphenyl)thiazol-5-yl)-2,3-dihydro-1H-inden-1-yl)-2-hydroxyethanesulfonamide] | 0.05 to 0.5 |
| CNC(=O)CCS(=O)(=O)N[C@H]1CCCc2c(-c3nnc(-c4ccc(OC(C)C)c(C#N)c4)s3)cccc21 [Compound 298, (S)-3-(N-(5-(5-(3-cyano-4-isopropoxyphenyl)-1,3,4-thiadiazol-2-yl)-1,2,3,4-tetrahydronaphthalen-1-yl)sulfamoyl)-N-methylpropanamide] | 0.05 to 0.5 |
